Counter-ions that a name gives are not always drawn. Like-named read-outs stand apart in the source and are kept apart here.
Biological target: T1, human histamine H3 receptor (Homo sapiens, UniProt Q9Y5N1)
T1 construct: One microgram of supercoiled H3 receptor cDNA was added to the cells and mixed; expressed in transfected cells; membranes prepared from cell pellets
Assay: {3H}-N-methylhistamine binding
Procedure: Transfection of Cells with Human Histamine Receptor
A 10 cm tissue culture dish with a confluent monolayer of SK-N-MC cells was split two days prior to transfection. Using sterile technique the media was removed and the cells were detached from the dish by the addition of trypsin. One fifth of the cells were then placed onto a new 10 cm dish. Cells were grown in a 37° C. incubator with 5% CO2 in Minimal Essential Media Eagle with 10%. Fetal Bovine Serum. After two days cells were approximately 80% confluent. These were removed from the dish with trypsin and pelleted in a clinical centrifuge. The pellet was then re-suspended in 400 μL complete media and transferred to an electroporation cuvette with a 0.4 cm gap between the electrodes. One microgram of supercoiled H3 receptor cDNA was added to the cells and mixed. The voltage for the electroporation was set at 0.25 kV, the capacitance was set at 960 μF. After electroporation the cells were diluted into 10 mL complete media and plated onto four 10 cm dishes. Because of the variability in the efficiency of electroporation, four different concentrations of cells were plated. The ratios used were; 1:20, 1:10, 1:5, with the remainder of the cells being added to the fourth dish. […] After 10 days dishes were analyzed for surviving colonies of cells. Dishes with well-isolated colonies were used. Cells from individual colonies were isolated and tested. SK-N-MC cells were used because they give efficient coupling for inhibition of adenylate cyclase. The clones that gave the most robust inhibition of adenylate cyclase in response to histamine were used for further study.
{^3H}-N-methylhistamine Binding
Cell pellets from histamine H3 receptor-expressing SK-N-MC cells were homogenized in 20 mM TrisHCl/0.5 mM EDTA. Supernatants from an 800 g spin were collected, recentrifuged at 30,000 g for 30 min. Pellets were re-homogenized in 50 mM Tris/5 mM EDTA (pH 7.4). […] Filters were dried, added to 4 mL scintillation cocktail and then counted on a liquid scintillation counter. Non-specific binding was defined with 10 μM histamine.

T1 sequence (Q9Y5N1 whole entry): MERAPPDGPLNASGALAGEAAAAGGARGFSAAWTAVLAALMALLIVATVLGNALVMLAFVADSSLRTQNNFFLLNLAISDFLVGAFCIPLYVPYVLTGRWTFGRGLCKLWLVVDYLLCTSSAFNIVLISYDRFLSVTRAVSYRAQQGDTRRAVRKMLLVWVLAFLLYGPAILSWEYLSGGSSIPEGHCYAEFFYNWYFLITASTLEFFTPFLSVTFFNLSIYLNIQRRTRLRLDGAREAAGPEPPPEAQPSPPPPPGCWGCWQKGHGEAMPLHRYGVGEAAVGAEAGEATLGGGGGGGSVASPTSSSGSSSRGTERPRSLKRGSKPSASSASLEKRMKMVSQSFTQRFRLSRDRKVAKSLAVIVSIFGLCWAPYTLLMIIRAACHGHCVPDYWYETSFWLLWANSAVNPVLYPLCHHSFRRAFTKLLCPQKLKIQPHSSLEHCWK

| Compound | Ki | Ki (membranes of histamine H3 receptor-expressing SK-N-MC cells, 0.8 nM {3H}-N-methylhistamine, 45 min at 25° C., […]) |
| --- | --- | --- |
| CCC(CC)N1CCN(C(=O)c2ccc(CNCc3ccccc3)cc2)CC1 [Example 20, {4-(Benzylamino-methyl)-phenyl}-{4-(1-ethyl-propyl)-piperazin-1-yl}-methanone] | 2 nM | – |
| CCC(CC)N1CCN(C(=O)c2ccc(CN3CCCCCC3)cc2)CC1 [Example 21, (4-Azepan-1-ylmethyl-phenyl)-{4-(1-ethyl-propyl)-piperazin-1-yl}-methanone] | 2 nM | – |
| CCC(CC)N1CCN(C(=O)c2ccc(CN3CCC4CCCCC4C3)cc2)CC1 (stereo not shown) [Example 22, {4-(1-Ethyl-propyl)-piperazin-1-yl}-{4-(decahydro-isoguinolin-2-ylmethyl)-phenyl}-methanone] | 2 nM | – |
| CCC(C)N1CCN(C(=O)c2ccc(CN3CCCCCC3)cc2)CC1 (stereo not shown) [Example 23, (4-Azepan-1-ylmethyl-phenyl)-(4-sec-butyl-piperazin-1-yl)-methanone] | 0.9 nM | – |
| CCC(C)N1CCN(C(=O)c2ccc(CN(C)C)cc2)CC1 (stereo not shown) [Example 24, (4-sec-Butyl-piperazin-1-yl)-(4-dimethylaminomethyl-phenyl)-methanone] | 1.5 nM | – |
| CCC(C)N1CCN(C(=O)c2ccc(CN3CCCC3)cc2)CC1 (stereo not shown) [Example 25, (4-sec-Butyl-piperazin-1-yl)-(4-pyrrolidin-1-ylmethyl-phenyl)-methanone] | 1 nM | – |
| CCC(CC)N1CCN(C(=O)c2ccc(CN3CCCC3)cc2)CC1 [Example 26, {4-(1-Ethyl-propyl)-piperazin-1-yl}-(4-pyrrolidin-1-ylmethyl-phenyl)-methanone] | 0.9 nM | – |
| CCC(CC)N1CCN(C(=O)c2ccc(CN3CCCCC3)cc2)CC1 [Example 27, {4-(1-Ethyl-propyl)-piperazin-1-yl}-(4-piperidin-1-ylmethyl-phenyl)-methanone] | 0.4 nM | – |
| CCC(C)N1CCN(C(=O)c2ccc(CN3CCCCC3)cc2)CC1 (stereo not shown) [Example 28, (4-sec-Butyl-piperazin-1-yl)-(4-piperidin-1-ylmethyl-phenyl)-methanone] | 0.9 nM | – |
| CCC(C)N1CCN(C(=O)c2ccc(CNc3ccccc3)cc2)CC1 (stereo not shown) [Example 29, (4-sec-Butyl-piperazin-1-yl)-(4-phenylaminomethyl-phenyl)-methanone] | 38 nM | – |
| CCCCN1CCN(C(=O)c2ccc(CN(C)C)cc2)CC1 [Example 30, (4-Butyl-piperazin-1-yl)-(4-dimethylaminomethyl-phenyl)-methanone] | 18 nM | – |
| CCCCN1CCN(C(=O)c2ccc(CNc3ccc(C(F)(F)F)cc3)cc2)CC1 [Example 31, (4-Butyl-piperazin-1-yl)-{4-{(4-trifluoromethyl-phenylamino)-methyl}-phenyl}-methanone] | 630 nM | – |
| CCCCCCC(C)N1CCN(C(=O)c2ccc(CN3CCOCC3)cc2)CC1 (stereo not shown) [Example 32, {4-(1-Methyl-heptyl)-piperazin-1-yl}-(4-morpholin-4-ylmethyl-phenyl)-methanone] | 130 nM | – |
| CCCCCCC(C)N1CCN(C(=O)c2ccc(CN3CCCCC3)cc2)CC1 (stereo not shown) [Example 33, {4-(1-Methyl-heptyl)-piperazin-1-yl}-(4-piperidin-1-ylmethyl-phenyl)-methanone] | 52 nM | – |
| CC(C)N1CCN(C(=O)c2ccc(CNc3ccc(C(F)(F)F)cc3)cc2)CC1 [Example 34, (4-Isopropyl-piperazin-1-yl)-{4-{(4-trifluoromethyl-phenylamino)-methyl}-phenyl}-methanone] | 68 nM | – |
| CC(C)N1CCN(Cc2ccc(C(=O)N3CCN(C(C)C)CC3)cc2)CC1 [Example 35, (4-Isopropyl-piperazin-1-yl)-{4-(4-isopropyl-piperazin-1-ylmethyl)-phenyl}-methanone] | – | 18 nM |

| Compound | Ki | Ki (membranes of histamine H3 receptor-expressing SK-N-MC cells, 0.8 nM {3H}-N-methylhistamine, 45 min at 25° C., […]) |
| --- | --- | --- |
| CCCCN1CCN(C(=O)c2ccc(CN3CCCC(C(F)(F)F)C3)cc2)CC1 (stereo not shown) [Example 36, (4-Butyl-piperazin-1-yl)-{4-(3-trifluoromethyl-piperidin-1-ylmethyl)-phenyl}-methanone] | 12 nM | – |
| CCCCN1CCN(C(=O)c2ccc(CN3CCOCC3)cc2)CC1 [Example 37, (4-Butyl-piperazin-1-yl)-(4-morpholin-4-ylmethyl-phenyl)-methanone] | 9 nM | – |
| CC(C)N1CCN(C(=O)c2cccc(CN3CCOCC3)c2)CC1 [Example 38, (4-Isopropyl-piperazin-1-yl)-(3-morpholin-4-ylmethyl-phenyl)-methanone] | 180 nM | – |
| CC(C)N1CCN(C(=O)c2cccc(CN3CCCCC3)c2)CC1 [Example 39, (4-Isopropyl-piperazin-1-yl)-(3-piperidin-1-ylmethyl-phenyl)-methanone] | 35 nM | – |
| CC(C)N1CCN(C(=O)c2ccc(CN3CCOCC3)cc2)CC1 [Example 40] | 3 nM | – |
| CN1CCN(C(=O)c2cccc(CN3CCC(Cc4ccccc4)CC3)c2)CC1 [Example 42, {3-(4-Benzyl-piperidin-1-ylmethyl)-phenyl}-(4-methyl-piperazin-1-yl)-methanone] | 800 nM | – |
| CN1CCN(C(=O)c2ccc(CN3CCOCC3)cc2)CC1 [Example 43, (4-Methyl-piperazin-1-yl)-(4-morpholin-4-ylmethyl-phenyl)-methanone dihydrochloride] | 22 nM | – |
| CC(C)N1CCN(C(=O)c2ccc(CNc3cc(C(F)(F)F)ccn3)cc2)CC1 [Example 44, (4-Isopropyl-piperazin-1-yl)-{4-{4-trifluoromethyl-pyridin-2-ylamino)-methyl}-phenyl}-methanone dihydrochloride] | 85 nM | – |
| CCC(CC)N1CCN(C(=O)c2ccc(CNc3ccccc3)cc2)CC1 [Example 45, {4-(1-Ethyl-propyl)-piperazin-1-yl}-(4-phenylaminomethyl-phenyl)-methanone dihydrochloride] | 54 nM | – |
| CCC(CC)N1CCN(C(=O)c2ccc(CN(C)C)cc2)CC1 [Example 46, (4-Dimethylaminomethyl-phenyl)-{4-(1-ethyl-propyl)-piperazin-1-yl}-methanone dihydrochloride] | 2 nM | – |
| CCC(CC)N1CCN(C(=O)c2ccc(CNc3ccc(C(F)(F)F)cc3)cc2)CC1 [Example 47, {4-(1-Ethyl-propyl)-piperazin-1-yl}-{-{4-{(4-trifluoromethyl-phenylamino)-methyl}-phenyl}-methanone dihydrochloride] | 81 nM | – |
| CCC(CC)N1CCN(C(=O)c2ccc(CN3CCOCC3)cc2)CC1 [Example 48, {4-(1-Ethyl-propyl)-piperazin-1-yl}-(4-morpholin-4-ylmethyl-phenyl)-methanone dihydrochloride] | 1 nM | – |
| CCC(CC)N1CCN(C(=O)c2ccc(CN3CCCC(C(F)(F)F)C3)cc2)CC1 (stereo not shown) [Example 49, {4-(1-Ethyl-propyl)-piperazin-1-yl}-{4-(3-trifluoromethyl-piperidin-1-ylmethyl)-phenyl}-methanone dihydrochloride] | 4 nM | – |
| CCC(C)N1CCN(C(=O)c2ccc(CN3CCCC(C(F)(F)F)C3)cc2)CC1 (stereo not shown) [Example 50, (4-sec-Butyl-piperazin-1-yl)-{4-(3-trifluoromethyl-piperidin-1-ylmethyl)-phenyl}-methanone dihydrochloride] | 30 nM | – |
| CCC(C)N1CCN(C(=O)c2ccc(CN3CCOCC3)cc2)CC1 (stereo not shown) [Example 51, (4-sec-Butyl-piperazin-1-yl)-(4-morpholin-4-ylmethyl-phenyl)-methanone dihydrochloride] | 2 nM | – |

— patent US7414047B2, “Piperazinyl and diazapanyl benzamides and benzthioamides” (Janssen Pharmaceutica N.V., priority 2002, dated 2008)
